Measurements as given in US20240226045A9, “RUMEN-PROTECTED COMPOSITIONS AND METHODS OF MAKING THE SAME” (Balchem Corporation, priority 2022, published 2024).

How the values were obtained:
[1] = Particle size distribution of histidine hydrochloride monohydrate crystals by sieving; assay type: physicochemical
From the text: Histidine hydrochloride monohydrate crystals were sieved on Ro Tap equipment using a stack of US Mesh sieves to obtain a fraction ranging from 850 microns (20 US Mesh) to 250 microns (60 US Mesh) particle size. The fraction was chosen to remove very fine particles, which present a challenge to optimal microencapsulation.

[2] = Methionine pellet pH test; assay type: physicochemical; settings: 2 hours at 39° C.
Experimental: The pellets were then incubated in a pH 2.0 buffer and a pH 7.0 buffer for 2 hours at 39° C. For comparison, pellets consisting of methionine were also incubated in the buffer solutions. The results are shown in FIG. 10 and in Table 26 below.

| Difference ([1]; Pan, opening size <106 micron) [g] | Final (wt % of total output) ([1]; Pan, opening size <106 micron) | Final (wt % of total output) ([1]; US mesh sieve #20, opening size 850 micron) | Final (wt % of total output) ([1]; US mesh sieve #40, opening size 425 micron) | Final (wt % of total output) ([1]; US mesh sieve #60, opening size 250 micron) | Final (wt % of total output) ([1]; US mesh sieve #80, opening size 180 micron) | Final (wt % of total output) ([1]; US mesh sieve #100, opening size 150 micron) | Final (wt % of total output) ([1]; US mesh sieve #140, opening size 106 micron) | Difference ([1]; retained on US mesh sieve #20, opening size 850 micron) [g] | Difference ([1]; retained on US mesh sieve #40, opening size 425 micron) [g] | Difference ([1]; retained on US mesh sieve #60, opening size 250 micron) [g] | Difference ([1]; retained on US mesh sieve #80, opening size 180 micron) [g] | Difference ([1]; retained on US mesh sieve #100, opening size 150 micron) [g] | Difference ([1]; retained on US mesh sieve #140, opening size 106 micron) [g] | wt % Release ([2]; 0.01M Acid Buffer, pH 2.00) [wt %] | wt % Release ([2]; 0.05M Phosphate Buffer, pH 7.00) [wt %] | Structure (SMILES) |
| --- | --- | --- | --- | --- | --- | --- | --- | --- | --- | --- | --- | --- | --- | --- | --- | --- |
| 7.41 | 7.4 wt % of total output | 2.6 wt % of total output | 34.8 wt % of total output | 33.9 wt % of total output | 11.9 wt % of total output | 5.3 wt % of total output | 4.1 wt % of total output | 2.60 | 34.87 | 33.99 | 11.88 | 5.35 | 4.09 | – | – | Cl.N[C@@H](Cc1cnc[nH]1)C(=O)O.O |
| – | – | – | – | – | – | – | – | – | – | – | – | – | – | 99 | 99 | CSCC[C@H](N)C(=O)O [Met Reference Standard (99.9% purity)] |
